In EP1025114B1, “3'-N-MODIFIED 6-O-SUBSTITUTED ERYTHROMYCIN KETOLIDE DERIVATIVES HAVING ANTIBACTERIAL ACTIVITY” (priority 1997, dated 1999):

Key:
Assay in all cases: In vitro antibacterial activity, agar dilution MIC
Assay type in all cases: cell-based
Candida albicans CCH 442 = Candida albicans CCH 442 (organism code TT); BHI agar, 35-37 °C, 20 to 24 hours; unit assumed
In short: (§1)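 Agar dilution on BHI agar: twelve successive compound dilutions, inoculated by Steers replicator with 1:100 dilutions (1:10 for slow growers such as Streptococcus). MIC is lowest concentration giving no growth, slight haze or sparse colonies versus drug-free control, judged visually; same-class reference antibiotic run alongside.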

[1] = system: Enterococcus faecium ATCC 8043; details: Enterococcus faecium ATCC 8043 (organism code II); BHI agar, 35-37 °C, 20 to 24 hours; unit assumed
In short: as §1

Escherichia coli DC-2 = Escherichia coli DC-2 (organism code SS); BHI agar, 35-37 °C, 20 to 24 hours; unit assumed
In short: as §1

Escherichia coli JUHL = Escherichia coli JUHL (organism code QQ); BHI agar, 35-37 °C, 20 to 24 hours; unit assumed
In short: as §1

Escherichia coli SS = Escherichia coli SS (organism code RR); BHI agar, 35-37 °C, 20 to 24 hours; unit assumed
In short: as §1

[2] = system: Haemophilis Influenzae DILL AMP R; details: Haemophilis Influenzae DILL AMP R (organism code WW); BHI agar, 35-37 °C, 20 to 24 hours; unit assumed
In short: as §1

[3] = system: Micrococcus luteus ATCC 4698; details: Micrococcus luteus ATCC 4698 (organism code PP); BHI agar, 35-37 °C, 20 to 24 hours; unit assumed
In short: as §1

[4] = system: Micrococcus luteus ATCC 9341; details: Micrococcus luteus ATCC 9341 (organism code OO); BHI agar, 35-37 °C, 20 to 24 hours; unit assumed
In short: as §1

[5] = system: Mycobacterium smegmatis ATCC 114; details: Mycobacterium smegmatis ATCC 114 (organism code UU); BHI agar, 35-37 °C, 20 to 24 hours; unit assumed
In short: as §1

[6] = system: Nocardia Asteroides ATCC9970; details: Nocardia Asteroides ATCC9970 (organism code VV); BHI agar, 35-37 °C, 20 to 24 hours; unit assumed
In short: as §1

[7] = system: Staphylococcus aureus 1775; details: Staphylococcus aureus 1775 (organism code GG); BHI agar, 35-37 °C, 20 to 24 hours; unit assumed
In short: as §1

[8] = system: Staphylococcus aureus A-5278; details: Staphylococcus aureus A-5278 (organism code CC); BHI agar, 35-37 °C, 20 to 24 hours; unit assumed
In short: as §1

[9] = system: Staphylococcus aureus A5177; details: Staphylococcus aureus A5177 (organism code BB); BHI agar, 35-37 °C, 20 to 24 hours; unit assumed
In short: as §1

[10] = system: Staphylococcus aureus ATCC 6538P; details: Staphylococcus aureus ATCC 6538P (organism code AA); BHI agar, 35-37 °C, 20 to 24 hours; unit assumed
In short: as §1

[11] = system: Staphylococcus aureus CMX 553; details: Staphylococcus aureus CMX 553 (organism code FF); BHI agar, 35-37 °C, 20 to 24 hours; unit assumed
In short: as §1

[12] = system: Staphylococcus aureus CMX 642A; details: Staphylococcus aureus CMX 642A (organism code DD); BHI agar, 35-37 °C, 20 to 24 hours; unit assumed
In short: as §1

[13] = system: Staphylococcus aureus NCTC10649M; details: Staphylococcus aureus NCTC10649M (organism code EE); BHI agar, 35-37 °C, 20 to 24 hours; unit assumed
In short: as §1

[14] = system: Staphylococcus epidermidis 3519; details: Staphylococcus epidermidis 3519 (organism code HH); BHI agar, 35-37 °C, 20 to 24 hours; unit assumed
In short: as §1

[15] = system: Streptococcus Pheumoniae 5649; details: Streptococcus Pheumoniae 5649 (organism code ZZA); BHI agar, 35-37 °C, 20 to 24 hours; unit assumed
In short: as §1

[16] = system: Streptococcus Pheumoniae 5979; details: Streptococcus Pheumoniae 5979 (organism code ZZ); BHI agar, 35-37 °C, 20 to 24 hours; unit assumed
In short: as §1

[17] = system: Streptococcus Pheumoniae ATCC6303; details: Streptococcus Pheumoniae ATCC6303 (organism code XX); BHI agar, 35-37 °C, 20 to 24 hours; unit assumed
In short: as §1

[18] = system: Streptococcus Pheumoniae GYR 1171; details: Streptococcus Pheumoniae GYR 1171 (organism code YY); BHI agar, 35-37 °C, 20 to 24 hours; unit assumed
In short: as §1

[19] = system: Streptococcus agalactiae CMX 508; details: Streptococcus agalactiae CMX 508 (organism code KK); BHI agar, 35-37 °C, 20 to 24 hours; unit assumed
In short: as §1

[20] = system: Streptococcus bovis A-5169; details: Streptococcus bovis A-5169 (organism code JJ); BHI agar, 35-37 °C, 20 to 24 hours; unit assumed
In short: as §1

[21] = system: Streptococcus pyogenes 930; details: Streptococcus pyogenes 930 (organism code MM); BHI agar, 35-37 °C, 20 to 24 hours; unit assumed
In short: as §1

[22] = system: Streptococcus pyogenes EES61; details: Streptococcus pyogenes EES61 (organism code LL); BHI agar, 35-37 °C, 20 to 24 hours; unit assumed
In short: as §1

[23] = system: Streptococcus pyogenes PIU 2548; details: Streptococcus pyogenes PIU 2548 (organism code NN); BHI agar, 35-37 °C, 20 to 24 hours; unit assumed
In short: as §1

Compound: C=C(C)CN(C)[C@H]1C[C@@H](C)O[C@@H](O[C@@H]2[C@@H](C)C(=O)[C@@H](C)C(=O)O[C@H](CC)[C@@]3(C)OC(=O)N[C@@H]3[C@@H](C)C(=O)[C@H](C)C[C@@]2(C)OCC=Cc2cnc3ccccc3c2)[C@@H]1O [Example 19, Compound of Formula (II); R is -CH2CH=CH-(3-quinolyl), R^p is H, W is absent, R^w is H, R^1 is CH2C(=CH2)CH3,R^2 is CH3]
- MIC (Candida albicans CCH 442): > 100 mg/L
- MIC [1]: 0.1 mg/L
- MIC (Escherichia coli DC-2): > 100 mg/L
- MIC (Escherichia coli JUHL): > 100 mg/L
- MIC (Escherichia coli SS): 0.78 mg/L
- MIC [2]: 4 mg/L
- MIC [3]: 0.1 mg/L
- MIC [4]: 0.05 mg/L
- MIC [5]: 0.2 mg/L
- MIC [6]: 0.1 mg/L
- MIC [7]: > 100 mg/L
- MIC [8]: > 100 mg/L
- MIC [9]: 0.2 mg/L
- MIC [10]: 0.2 mg/L
- MIC [11]: 0.2 mg/L
- MIC [12]: 0.2 mg/L
- MIC [13]: 0.39 mg/L
- MIC [14]: 0.2 mg/L
- MIC [15]: 0.12 mg/L
- MIC [16]: 128 mg/L
- MIC [17]: ≤ 0.004 mg/L
- MIC [18]: ≤ 0.004 mg/L
- MIC [19]: 0.02 mg/L
- MIC [20]: 0.02 mg/L
- MIC [21]: 6.2 mg/L
- MIC [22]: 0.01 mg/L
- MIC [23]: 0.2 mg/L

Compound: CC[C@H]1OC(=O)[C@H](C)C(=O)[C@H](C)[C@@H](O[C@@H]2O[C@H](C)C[C@H](N(C)CCF)[C@H]2O)[C@](C)(OCC=Cc2cnc3ccccc3c2)C[C@@H](C)C(=O)[C@H](C)[C@H]2NC(=O)O[C@@]21C [Example 7, Compound of Formula (II); R is -CH2CH=CH-(3-quinolyl), R^p is H, W is absent, R^w is H, R^1 is CH2CH2F, R^2 is CH3]
- MIC (Candida albicans CCH 442): > 100 mg/L
- MIC [1]: 0.05 mg/L
- MIC (Escherichia coli DC-2): > 100 mg/L
- MIC (Escherichia coli JUHL): > 100 mg/L
- MIC (Escherichia coli SS): 0.39 mg/L
- MIC [2]: 8 mg/L
- MIC [3]: 0.39 mg/L
- MIC [4]: 0.05 mg/L
- MIC [5]: 1.56 mg/L
- MIC [6]: 0.39 mg/L
- MIC [7]: > 100 mg/L
- MIC [8]: > 100 mg/L
- MIC [9]: 0.2 mg/L
- MIC [10]: 0.1 mg/L
- MIC [11]: 0.05 mg/L
- MIC [12]: 0.1 mg/L
- MIC [13]: 0.1 mg/L
- MIC [14]: 0.2 mg/L
- MIC [15]: 0.25 mg/L
- MIC [16]: 16 mg/L
- MIC [17]: 0.03 mg/L
- MIC [18]: 0.03 mg/L
- MIC [19]: 0.05 mg/L
- MIC [20]: 0.01 mg/L
- MIC [21]: 12.5 mg/L
- MIC [22]: 0.01 mg/L
- MIC [23]: 0.39 mg/L

Compound: C=CCN(C)[C@H]1C[C@@H](C)O[C@@H](O[C@@H]2[C@@H](C)C(=O)[C@@H](C)C(=O)O[C@H](CC)[C@@]3(C)OC(=O)N[C@@H]3[C@@H](C)C(=O)[C@H](C)C[C@@]2(C)OCC=Cc2cnc3ccccc3c2)[C@@H]1O [Example 6, Compound of Formula (II); R is -CH2CH=CH-(3-quinolyl), R^p is H, W is absent, R^w is H, R^1 is CH2CH=CH2, R^2 is CH3]
- MIC (Candida albicans CCH 442): > 100 mg/L
- MIC [1]: 0.05 mg/L
- MIC (Escherichia coli DC-2): 100 mg/L
- MIC (Escherichia coli JUHL): 50 mg/L
- MIC (Escherichia coli SS): 0.2 mg/L
- MIC [2]: 4 mg/L
- MIC [3]: 0.2 mg/L
- MIC [4]: 0.02 mg/L
- MIC [5]: 0.2 mg/L
- MIC [6]: 0.1 mg/L
- MIC [7]: > 100 mg/L
- MIC [8]: > 100 mg/L
- MIC [9]: 0.05 mg/L
- MIC [10]: 0.05 mg/L
- MIC [11]: 0.05 mg/L
- MIC [12]: 0.1 mg/L
- MIC [13]: 0.05 mg/L
- MIC [14]: 0.2 mg/L
- MIC [15]: 0.25 mg/L
- MIC [16]: 16 mg/L
- MIC [17]: ≤ 0.004 mg/L
- MIC [18]: ≤ 0.004 mg/L
- MIC [19]: 0.05 mg/L
- MIC [20]: 0.02 mg/L
- MIC [21]: 3.1 mg/L
- MIC [22]: 0.02 mg/L
- MIC [23]: 0.2 mg/L

Compound: CC[C@H]1OC(=O)[C@H](C)C(=O)[C@H](C)[C@@H](O[C@@H]2O[C@H](C)C[C@H](N(C)CC3CC3)[C@H]2O)[C@](C)(OCC=Cc2cnc3ccccc3c2)C[C@@H](C)C(=O)[C@H](C)[C@H]2NC(=O)O[C@@]21C [Example 15, Compound of Formula (II); R is -CH2CH=CH-(3-quinolyl), R^p is H, W is absent, R^w is H, R^1 is CH2-(cyclo-C3H5), R^2 is CH3]
- MIC (Candida albicans CCH 442): > 100 mg/L
- MIC [1]: 0.05 mg/L
- MIC (Escherichia coli DC-2): > 100 mg/L
- MIC (Escherichia coli JUHL): > 100 mg/L
- MIC (Escherichia coli SS): 0.2 mg/L
- MIC [2]: 8 mg/L
- MIC [3]: 0.39 mg/L
- MIC [4]: 0.05 mg/L
- MIC [5]: 0.78 mg/L
- MIC [6]: 0.2 mg/L
- MIC [7]: > 100 mg/L
- MIC [8]: > 100 mg/L
- MIC [9]: 0.39 mg/L
- MIC [10]: 0.39 mg/L
- MIC [11]: 0.39 mg/L
- MIC [12]: 0.39 mg/L
- MIC [13]: 0.39 mg/L
- MIC [14]: 0.39 mg/L
- MIC [15]: 0.25 mg/L
- MIC [16]: > 128 mg/L
- MIC [17]: 0.03 mg/L
- MIC [18]: 0.03 mg/L
- MIC [19]: 0.05 mg/L
- MIC [20]: 0.02 mg/L
- MIC [21]: 25 mg/L
- MIC [22]: 0.02 mg/L
- MIC [23]: 0.1 mg/L

Compound: CCOC(=O)CN(C)[C@H]1C[C@@H](C)O[C@@H](O[C@@H]2[C@@H](C)C(=O)[C@@H](C)C(=O)O[C@H](CC)[C@@]3(C)OC(=O)N[C@@H]3[C@@H](C)C(=O)[C@H](C)C[C@@]2(C)OCC=Cc2cnc3ccccc3c2)[C@@H]1O [Example 5, Compound of Formula (II); R is -CH2CH=CH-(3-quinolyl), R^p is H, W is absent, R^w is H, R^1 is CH2C(O)-O-CH2CH3, R^2 is CH3.]
- MIC (Candida albicans CCH 442): > 100 mg/L
- MIC [1]: 6.2 mg/L
- MIC (Escherichia coli DC-2): > 100 mg/L
- MIC (Escherichia coli JUHL): > 100 mg/L
- MIC (Escherichia coli SS): 25 mg/L
- MIC [2]: 128 mg/L
- MIC [3]: 6.2 mg/L
- MIC [4]: 0.78 mg/L
- MIC [5]: 25 mg/L
- MIC [6]: 25 mg/L
- MIC [7]: > 100 mg/L
- MIC [8]: > 100 mg/L
- MIC [9]: 12.5 mg/L
- MIC [10]: 6.2 mg/L
- MIC [11]: 12.5 mg/L
- MIC [12]: 12.5 mg/L
- MIC [13]: 12.5 mg/L
- MIC [14]: 12.5 mg/L
- MIC [15]: 2 mg/L
- MIC [16]: > 128 mg/L
- MIC [17]: 0.25 mg/L
- MIC [18]: 0.25 mg/L
- MIC [19]: 1.56 mg/L
- MIC [20]: 1.56 mg/L
- MIC [21]: > 100 mg/L
- MIC [22]: 0.39 mg/L
- MIC [23]: 6.2 mg/L
